{
  "source": "patent US20250352563A1",
  "about": "“Method and Use of Psilocybin in the Prevention and Treatment of Stroke” (Revive Therapeutics Ltd, priority 2022, published 2025)",
  "key": {"[1]": {"test_system": "rat primary cortical neuronal culture", "assay": "Glutamate neurotoxicity in primary cortical neuronal culture (MAP2 immunocytochemistry)"}, "[2]": {"conditions": "non-lesioned brain; cited from earlier work"}, "[3]": {"test_system": "MAP2, synaptophysin (SYP), IBA1, and BDNF expression", "assay": "Post-stroke i.p. treatment, qRT-PCR of lesioned cerebral cortex", "assay_type": "in vivo, rat", "conditions": "1 mg/kg/d i.p. days 3-7, cortex day 9"}, "stroke rats (MCAo) [4]": {"test_system": "stroke rats (MCAo)", "assay": "Pre-stroke i.c.v. treatment, neurological and locomotor tests in MCAo stroke rats", "conditions": "D2", "experimental": "Psilocybin or vehicle was given before or after the MCAo. For the pretreatment, animals were anesthetized. Psilocybin (100 μM×20 μL, n=7) or vehicle (saline, 20 μl, n=7) was administered intracerebroventricularly (i.c.v., AP, −0.8 mm; LV, −1.5 mm; DV, −3.5 mm) at 15 min before MCAo through a Hamilton microsyringe. The speed of injection was controlled by a syringe pump (Micro 4, WPI, Sarasota, FL).\nThe right middle cerebral artery (MCA) was transiently occluded (MCAo) as we previously described (33). In brief, the bilateral common carotids were clamped with nontraumatic arterial clips. The right MCA was ligated with a 10-O suture to generate focal infarction in the cerebral cortex. The ligature and clips were removed after 60 min ischemia to generate reperfusion injury. Core body temperature was monitored with a thermistor probe and maintained at 37° C. with a heating pad during anesthesia. After recovery from anesthesia, body temperature was maintained at 37° C. using a temperature-controlled incubator.\n(§1) Locomotion was measured using an infrared activity monitor (Accuscan, Columbus, OH) as we previously described (19, 37). Rats were individually placed in a 3D infrared behavior chamber (42×42×21 cm) for 60 min. Four parameters were recorded: (a) horizontal activity (HACTV, the total number of beam interruptions that occurred in the horizontal sensors), (b) total distance traveled (TOTDIST, the distance, in centimeters, traveled by the animals), and (c) No. of movements (MOVNO), (d) horizontal movements time (MOVTIME).\nA total of 14 adult rats were used for this analysis. Psilocybin (100 μM×20 μL, n=7) or vehicle (saline, 20 μL, n=7) was delivered to the lateral ventricle (i.c.v., coordinates: AP:0.8 mm, Lat:1.5 mm, DV −3.5 mm) at 10-15 min prior to the a 60-min MCAo. Behavioral tests were conducted two days (or D2) after MCAo (FIG. 2A). […] Locomotoractivity was examined in infra-red activity chambers for one hour."}, "stroke rats (MCAo) [5]": {"test_system": "stroke rats (MCAo)", "assay": "Pre-stroke i.c.v. treatment, brain infarction by TTC staining in MCAo stroke rats", "assay_type": "in vivo, rat", "conditions": "i.c.v. pretreatment, day 2"}, "stroke rats (MCAo) [6]": {"test_system": "stroke rats (MCAo)", "assay": "Post-stroke i.p. treatment, neurological and locomotor tests in MCAo stroke rats", "conditions": "1 mg/kg/d i.p. days 3 to 7 after MCAo", "experimental": "In the posttreatment group, Psilocybin (1 mg/kg/day, n=7) or vehicle (n=6) was administered i.p. from day 3 to day 7.\n(b) Neurological deficits were scored by the Bederson's neurological test (35, 36). In a postural reflex test, rats were examined for the degree of abnormal posture when suspended by 20-30 cm above the testing table. They were scored according to the following criteria. • 0 Rats extend both forelimbs straight. No observable deficit. • 1 Rats keep the one forelimb to the breast and extend the other forelimb straight. • 2 Rats show decreased resistance to lateral push in addition to behavior in score 1 without circling. • 3 Rats twist the upper half of their body in addition to behavior in score 2.\nas §1\nPsilocybin (1 mg/kg/d, n=7) or vehicle (n=6) was delivered systemically (i.p.) from days 3 to 7 after the MCAo. Neurological and locomotor tests were examined on day 9 (FIG. 4A)."}, "[7]": {"test_system": "rat model of stroke (MCAo)", "conditions": "intraperitoneal injection prior to MCAo; cited from earlier work"}, "stroke rats (MCAo) [8]": {"test_system": "stroke rats (MCAo)", "assay": "ANA12 antagonism of psilocybin-mediated neuroprotection in MCAo stroke rats", "assay_type": "in vivo, rat"}, "[9]": {"test_system": "primary cortical neuronal culture", "assay": "ANA12 antagonism of psilocybin-mediated protection in primary cortical neuronal culture", "conditions": "Glu 100 μM + Psi 10 μM + ANA 10 μM; p<0.05, one-way ANOVA", "text": "A selective BDNF antagonist ANA12 was included on D10 along with psilocybin and glutamate (see timeline in FIG. 6C)."}, "[10]": {"conditions": "stroke reduced expression, p<0.05"}, "[11]": {"conditions": "ANA12 100 μM×20 μL/d intranasally days 0 and 1, Psilocybin i.c.v. prior to MCAo"}},
  "data": [
    {"smiles": "CN(C)CCc1c[nH]c2cccc(OP(=O)(O)O)c12", "note": "[Psilocybin, 4-phosphoryloxy-N,N-dimethyltryptamine]", "values": [
      {"measurement": "Glu-mediated neuronal loss (MAP2-ir)", "setting": "[1]; Glu 100 μM, Psi 10 μM, photomicrographs FIG. 1A", "value": "antagonized"},
      {"measurement": "crossing of the blood-brain barrier", "setting": "[2]", "value": "inefficient to freely cross the blood-brain barrier"},
      {"measurement": "expression of BDNF in the lesioned brain (qRTPCR)", "setting": "[3]; p=0.01, stroke vs. stroke+PSI", "value": "significantly upregulated"},
      {"measurement": "expression of MAP2 in the stroke brain (qRTPCR)", "setting": "[3]; [10]", "value": "significantly normalized"},
      {"measurement": "expression of synaptophysin (SYP) in the stroke brain (qRTPCR)", "setting": "[3]; [10]", "value": "significantly normalized"},
      {"measurement": "expression of IBA1 in the stroke brain (qRTPCR)", "setting": "[3]; stroke upregulated expression, p<0.05", "value": "significantly normalized"},
      {"measurement": "body asymmetry", "setting": "stroke rats (MCAo) [4]; 100 μM×20 μL i.c.v. 10-15 min prior to MCAo, p=0.00345", "value": "significantly decreased"},
      {"measurement": "horizontal activity (HACTV)", "setting": "stroke rats (MCAo) [4]; 100 μM×20 μL i.c.v. prior to MCAo, one hour, p=0.0246", "value": "significantly increased"},
      {"measurement": "movement time (MOVTIME)", "setting": "stroke rats (MCAo) [4]; 100 μM×20 μL i.c.v. prior to MCAo, p=0.00351", "value": "significantly increased"},
      {"measurement": "total distance traveled (TOTODIST)", "setting": "stroke rats (MCAo) [4]; 100 μM×20 μL i.c.v. prior to MCAo, p=0.0103", "value": "significantly increased"},
      {"measurement": "movement number (MOVNO)", "setting": "stroke rats (MCAo) [4]; 100 μM×20 μL i.c.v. prior to MCAo, p=0.0479", "value": "significantly increased"},
      {"measurement": "area of infarction in each 2-mm slice", "setting": "stroke rats (MCAo) [5]; p<0.001, two-way ANOVA, difference mainly on rostral slices", "value": "significantly lowered infarction"},
      {"measurement": "infarct volume (TTC staining)", "setting": "stroke rats (MCAo) [5]; typical TTC staining FIG. 3A", "value": "reduced the infarct volume"},
      {"measurement": "horizontal activity", "setting": "stroke rats (MCAo) [6]; day 9, p=0.011", "value": "increased"},
      {"measurement": "total distance traveled", "setting": "stroke rats (MCAo) [6]; day 9, p=0.018", "value": "increased"},
      {"measurement": "movement number", "setting": "stroke rats (MCAo) [6]; day 9, p=0.023", "value": "increased"},
      {"measurement": "movement time", "setting": "stroke rats (MCAo) [6]; day 9, p=0.034", "value": "increased"},
      {"measurement": "body asymmetry", "setting": "stroke rats (MCAo) [6]; day 9, p=0.0445", "value": "significantly reduced"},
      {"measurement": "Bederson's neurological test", "setting": "stroke rats (MCAo) [6]; tested day 9, p=0.0421", "value": "significantly reduced"}
    ]},
    {"smiles": "CN(C)CCc1c[nH]c2ccccc12", "note": "[DMT, N,N-dimethyltryptamine]", "values": [
      {"measurement": "BDNF expression", "setting": "[7]", "value": "increased"},
      {"measurement": "brain infarction", "setting": "[7]", "value": "reduced"},
      {"measurement": "brain inflammation", "setting": "[7]", "value": "reduced"},
      {"measurement": "staircase behavior", "setting": "[7]", "value": "improved"}
    ]},
    {"smiles": "O=C(Nc1ccccc1C(=O)NC1CCCCNC1=O)c1cc2ccccc2s1", "note": "(centres unmarked) [ANA12]", "values": [
      {"measurement": "Psilocybin-mediated improvement in horizontal activity", "setting": "stroke rats (MCAo) [8]; [11]", "value": "significantly antagonized"},
      {"measurement": "Psilocybin-mediated improvement in total distance traveled", "setting": "stroke rats (MCAo) [8]; [11]", "value": "significantly antagonized"},
      {"measurement": "psilocybin-mediated improvement in neurological behavior", "setting": "stroke rats (MCAo) [8]; [11]", "value": "significantly antagonized"},
      {"measurement": "psilocybin-mediated reduction in brain infarction", "setting": "stroke rats (MCAo) [8]; ANA12 100 μM×20 μL/d intranasally days 0 and 1 after MCAo, Psilocybin i.c.v. 100 μM×20 μl 15 min prior", "value": "significantly antagonized"},
      {"measurement": "psilocybin-mediated improvement in MAP2-ir", "setting": "[9]", "value": "significantly antagonized"}
    ]},
    {"smiles": "N[C@@H](CCC(=O)O)C(=O)O", "note": "[Glutamate]", "values": [
      {"measurement": "MAP2 immunoreactivity (MAP2-ir)", "setting": "[1]; Glutamate 100 μM added on DIV10, fixed DIV12, p<0.001", "value": "significantly reduced"}
    ]}
  ]
}
